Where two headings read alike, the source gives them in different places.
What was measured:
alpha2B receptor = biological target: T1, alpha2B receptor (Homo sapiens, UniProt P18089); test: RSAT assay, alpha 2B; type: cell-based; conditions: for (rel. efficacy) Alpha 2B: ratio of maximal effect to standard full agonist brimonidine (UK14304)
T1 construct: expressed in transfected cells; host or cells: NIH-3T3
T1 sequence (P18089 1-450): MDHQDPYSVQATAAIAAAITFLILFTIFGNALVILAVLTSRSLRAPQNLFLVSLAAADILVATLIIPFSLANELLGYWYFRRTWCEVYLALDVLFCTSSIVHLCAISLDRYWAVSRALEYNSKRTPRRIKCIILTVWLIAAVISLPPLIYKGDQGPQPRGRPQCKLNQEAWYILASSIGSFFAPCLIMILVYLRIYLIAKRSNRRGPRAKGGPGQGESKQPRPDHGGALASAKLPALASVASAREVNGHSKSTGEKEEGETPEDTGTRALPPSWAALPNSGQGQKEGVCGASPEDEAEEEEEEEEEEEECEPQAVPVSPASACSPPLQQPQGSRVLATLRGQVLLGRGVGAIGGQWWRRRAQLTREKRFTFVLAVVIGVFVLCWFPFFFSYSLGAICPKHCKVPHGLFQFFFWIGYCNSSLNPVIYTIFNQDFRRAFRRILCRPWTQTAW
Method: (§1) Selected presently described compounds were synthesized and tested for alpha adrenergic activity using the Receptor Selection and Amplification Technology (RSAT) assay. Cells expressing each of the alpha-2-adrenergic receptors alone were incubated with various compounds and a receptor-mediated growth response was measured. The compound's activity is expressed as its relative efficacy compared to a standard full agonist.
(§2) The RSAT assay measures a receptor-mediated loss of contact inhibition that results in selective proliferation of receptor-containing cells in a mixed population of confluent cells. The increase in cell number is assessed with an appropriate transfected marker gene such as β-galactosidase, the activity of which can be easily measured in a 96-well format. Receptors that activate the G protein, Gq, elicit this response. Alpha2 receptors, which normally couple to Gi, activate the RSAT response when coexpressed with a hybrid Gq protein that has a Gi receptor recognition domain, called Gq/i5.
(§3) NIH-3T3 cells are plated at a density of 2×10^6 cells in 15 cm dishes and maintained in Dulbecco's modified Eagle's medium supplemented with 10% calf serum. One day later, cells are cotransfected by calcium phosphate precipitation with mammalian expression plasmids encoding p-SV-β-galactosidase (5-10 μg), receptor (1-2 μg) and G protein (1-2 μg). 40 μg salmon sperm DNA may also be included in the transfection mixture. Fresh media is added on the following day and 1-2 days later, cells are harvested and frozen in 50 assay aliquots. Cells are thawed and […] added to […] aliquots of various concentrations of drugs in triplicate in 96-well dishes. Incubations continue 72-96 hr at 37° C. After washing with phosphatebuffered saline, β-galactosidase enzyme activity is determined by adding 200 μl of the chromogenic substrate (consisting of 3.5 mM o-nitrophenyl-β-D-galactopyranoside and 0.5% nonidet P-40 in phosphate buffered saline), incubating overnight at 30° C. and measuring optical density at 420 nm. The absorbance is a measure of enzyme activity, which depends on cell number and reflects a receptor-mediated cell proliferation. The EC50 and maximal effect of each drug at each alpha2 receptor is determined. The efficacy or intrinsic activity is calculated as a ratio of the maximal effect of the drug to the maximal effect of a standard full agonist for each receptor subtype. Brimonidine, also called UK14304, is used as the standard agonist for the alpha2A, alpha2B, and alpha2C receptors.
(§4) The compounds activity is expressed as its relative efficacy compared to a standard full agonist.

alpha2C receptor = biological target: T2, alpha2C receptor (Homo sapiens, UniProt P18825); test: RSAT assay, alpha 2C; type: cell-based; conditions: for (rel. efficacy) Alpha 2C: ratio of maximal effect to standard full agonist brimonidine (UK14304)
T2 construct: expressed in transfected cells; host or cells: NIH-3T3
T2 sequence (P18825 1-462): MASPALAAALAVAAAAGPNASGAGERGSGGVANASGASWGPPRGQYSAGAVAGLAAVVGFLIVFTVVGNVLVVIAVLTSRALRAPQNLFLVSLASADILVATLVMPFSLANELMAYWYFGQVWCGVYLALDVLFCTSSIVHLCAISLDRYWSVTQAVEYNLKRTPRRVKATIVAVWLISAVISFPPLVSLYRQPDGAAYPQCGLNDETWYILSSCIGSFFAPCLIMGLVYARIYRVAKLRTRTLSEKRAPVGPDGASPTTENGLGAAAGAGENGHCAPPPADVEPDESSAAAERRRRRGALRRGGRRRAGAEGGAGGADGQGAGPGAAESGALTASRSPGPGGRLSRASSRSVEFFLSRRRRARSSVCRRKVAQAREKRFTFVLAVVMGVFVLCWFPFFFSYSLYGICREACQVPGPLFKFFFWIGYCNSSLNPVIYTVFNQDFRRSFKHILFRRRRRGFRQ
Method: as §1, §2, §3, §4

[1] = RSAT, NIH-3T3 cells, NA = not active, read-out: EC50 (nM) Alpha 2B
[2] = RSAT, NIH-3T3 cells, NA = not active, read-out: EC50 (nM) Alpha 2C

| Structure (SMILES) | EC50 (alpha2B receptor; [1]) | (rel. efficacy) Alpha 2B (alpha2B receptor; RSAT) | EC50 (alpha2C receptor) | (rel. efficacy) Alpha 2C (alpha2C receptor; RSAT) | EC50 (alpha2B receptor) | EC50 (alpha2C receptor; [2]) |
| --- | --- | --- | --- | --- | --- | --- |
| FC(F)Oc1cccc(CNC2=NCCO2)c1 | 217 nM | 0.6 | 60 nM | 0.49 |  |  |
| Clc1ccccc1CNC1=NCCS1 |  | 0.85 |  | 0.66 | 50 nM | 699 nM |
| FC(F)(F)c1ccccc1CNC1=NCCO1 |  | 0.97 | 21 nM | 0.8 | 31 nM |  |
| FC(F)Oc1ccccc1CNC1=NCCO1 |  | 0.83 | 13 nM | 0.74 | 34 nM |  |
| Clc1cccc(CNC2=NCCS2)c1 |  | 0.99 |  | 0.48 | 42 nM | 504 nM |
| Fc1c(Cl)cccc1CNC1=NCCS1 |  | 1.01 | 535 nM | 0.7 | 107 nM |  |
| Fc1ccc(Br)c(CNC2=NCCO2)c1 |  | 1.05 | 29 nM | 0.71 | 4 nM |  |
| Fc1c(Cl)cccc1CNC1=NCCO1 [drawing 19] |  | 1.09 | 22 nM | 0.85 | 10 nM |  |
| Cc1cccc(CNC2=NCCO2)c1C |  | 1.09 | 11 nM | 0.83 | 2 nM |  |
| Fc1ccc(Br)c(CNC2=NCCS2)c1 |  | 0.97 | 452 nM | 0.67 | 73 nM |  |
| Fc1ccc(Br)cc1CNC1=NCCS1 | 280 nM | 0.85 |  | 0.64 |  | 2060 nM |
| Clc1ccccc1CNC1=NCCO1 |  | 1.02 | 42 nM | 0.83 | 3.3 nM |  |
| Cc1c(Cl)cccc1CNC1=NCCS1 |  | 0.99 | 401 nM | 0.72 | 40 nM |  |
| Fc1ccc(Br)cc1CNC1=NCCO1 |  | 0.89 |  | 0.63 | 18 nM | 186 nM |
| Clc1ccc(Br)cc1CNC1=NCCO1 |  | 0.98 | 81 nM | 0.71 | 20 nM |  |
| Clc1cccc(CNC2=NCCS2)c1Br |  | 0.85 |  | 0.68 | 40 nM | 303 nM |

| Structure (SMILES) | EC50 (alpha2B receptor; [1]) | (rel. efficacy) Alpha 2B (alpha2B receptor; RSAT) | EC50 (alpha2C receptor) | (rel. efficacy) Alpha 2C (alpha2C receptor; RSAT) | EC50 (alpha2B receptor) | EC50 (alpha2C receptor; [2]) |
| --- | --- | --- | --- | --- | --- | --- |
| Brc1cccc(CNC2=NCCO2)c1 |  | 1.0 | 83 nM | 0.59 | 12 nM |  |
| Fc1ccc(Cl)c(F)c1CNC1=NCCO1 |  | 0.93 |  | 0.52 | 57 nM | 356 nM |
| Cc1cc(Br)c(F)c(CNC2=NCCS2)c1 | 168 nM | 1.04 |  | 0.62 |  | 803 nM |
| FC(F)(F)c1cccc(CNC2=NCCS2)c1Cl | 101 nM | 1.08 |  | 0.46 |  | 854 nM |
| Clc1ccc(Br)cc1CNC1=NCCS1 | 296 nM | 0.9 |  | 0.56 |  | 1330 nM |
| Clc1cccc(CNC2=NCCO2)c1Cl |  | 1.05 | 92 nM | 0.91 | 5 nM |  |
| COc1ccccc1CNC1=NCCO1 [drawing 17] |  | 1.09 |  | 0.53 | 13.4 nM | 181 nM |
| Brc1ccccc1CNC1=NCCO1 |  | 1.09 | 85 nM | 0.85 | 5 nM |  |
| Fc1c(CNC2=NCCS2)cccc1C(F)(F)F |  | 0.99 | 1430 nM | 0.73 | 184 nM |  |
| Brc1cccc(CNC2=NCCS2)c1 |  | 0.84 | 459 nM | 0.5 | 75 nM |  |
| Cc1cc(Cl)cc(CNC2=NCCS2)c1F |  | 0.96 | 1250 nM | 0.51 | 351 nM |  |
| COc1ccccc1CNC1=NCCS1 [drawing 16] |  |  | 1550 nM | 0.74 |  |  |
| Fc1cccc(CNC2=NCCO2)c1 |  | 0.82 | 17 nM | 0.59 | 39 nM |  |
| FC(F)(F)c1cccc(CNC2=NCCO2)c1Cl |  | 0.96 |  | 0.81 | 5 nM | 189 nM |
| Clc1cccc(CNC2=NCCS2)c1Cl |  | 0.94 | 252 nM | 0.68 | 28 nM |  |

Source: US8329918B2, “Selective alpha 2B/2C agonists” (priority 2009, dated 2012)
